Measurements: publication PMC5681660, “Reduced hepatitis B and D viral entry using clinically applied drugs as novel inhibitors of the bile acid transporter NTCP” (Scientific Reports, 2017)
Where a name gives a salt, the structure may show the parent alone. Read-outs that look alike come from different tables or passages of the source. Starred links: 1 amine or outer side, 2 acyl side, 3 side chain; linkers in the order of their positions; H or OH if unused. Positions of bridges follow the written chain, without caps; N, C: chain ends. Non-standard residues stand in square brackets, D forms with d. Residues, ends and D or L forms follow the SMILES beside them. *: point of attachment. X1 = NC1=N[C@@H]([C@H](N[*:1])C(=O)[*:2])C[C@H](O)N1; ΔAla(Z-3-ureido) = NC(=O)N/C=C(\N)C(=O)O; β3hOrn = NCCC[C@H](N)CC(=O)*; Dap = NC[C@H](N)C(=O)O

Experiments:
[1] = target: T1, human NTCP (Homo sapiens, UniProt Q14973); assay: Screening taurocholate uptake assay (96-well, [14C]taurocholate, 10 µM drug)
T1 sequence (Q14973 1-349): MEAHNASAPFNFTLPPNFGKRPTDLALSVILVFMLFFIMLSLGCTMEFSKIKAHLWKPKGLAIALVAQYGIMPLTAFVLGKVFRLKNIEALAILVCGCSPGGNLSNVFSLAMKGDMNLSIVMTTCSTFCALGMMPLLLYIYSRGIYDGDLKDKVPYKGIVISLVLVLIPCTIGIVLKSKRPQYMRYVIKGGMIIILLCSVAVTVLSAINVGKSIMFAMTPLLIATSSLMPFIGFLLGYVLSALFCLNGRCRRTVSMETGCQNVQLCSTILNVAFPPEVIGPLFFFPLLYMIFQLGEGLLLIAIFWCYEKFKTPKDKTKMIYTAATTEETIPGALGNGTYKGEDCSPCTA

[2] = target: T1, human NTCP; assay: Screening fluorescent competitive Myrcludex B-FITC binding assay (96-well, 10 µM drug)
[3] = combined ranking from functional and binding screening assays
[4] = screen, 10 µM drug, taurocholate uptake
[5] = screen, 10 µM drug, Myrcludex B-FITC binding
[6] = Prestwick library screen, 10 µM drug, B-score of taurocholate uptake
[7] = combined ranking from functional and binding assay B-scores
[8] = Prestwick library screen, 10 µM drug, B-score of Myrcludex B-FITC binding
[9] = Prestwick library screen, taurocholate uptake, 10 µM drug
[10] = ranking score beside the functional and binding assay B-scores of the screen
[11] = Prestwick library screen, Myrcludex B-FITC binding, 10 µM drug

| SMILES | Ranking score [1, 3] | B-score functional assay [1, 4] | B-score binding assay [2, 5] | B-score functional assay [1, 6] | Ranking score [1, 7] | B-score binding assay [2, 8] | also measured |
| --- | --- | --- | --- | --- | --- | --- | --- |
| [H]/N=C(\N/C(=N/[H])Nc1ccc(Cl)cc1)NC(C)C [Proguanil hydrochloride] | 309.176 | -0.025 | -1.489 | – | – | – | – |
| NS(=O)(=O)c1cc2c(cc1Cl)N=CNS2(=O)=O [Chlorothiazide] | – | – | – | 1.41 | 967.179 | 0.263 | – |
| Cl.O=c1[nH]oc2c1CCNC2 [THIP Hydrochloride] | 426.394 | 0.28 | -1.136 | – | – | – | – |
| Cn1c(=O)c2c(ncn2C)n(C)c1=O [Caffeine] | – | – | – | – | – | – | B-score functional assay [1, 9]: 0.363; Ranking score [1, 10]: 818.709; B-score binding assay [2, 11]: 0.154 |
| NCCCNCCSP(=O)(O)O [Amifostine] | – | – | – | – | – | – | B-score functional assay [1, 9]: 0.006; Ranking score [1, 10]: 764.099; B-score binding assay [2, 11]: 0.481 |
| CC(C)(C)NC[C@H](O)COc1ccccc1C1CCCC1 [Penbutolol sulfate] | 368.646 | 0.103 | -1.346 | – | – | – | – |
| CCC(C)n1ncn(-c2ccc(N3CCN(c4ccc(OCC5COC(Cn6cncn6)(c6ccc(Cl)cc6Cl)O5)cc4)CC3)cc2)c1=O (stereo not drawn) [Itraconazole] | – | – | – | 0.058 | 871.813 | 1.124 | – |
| CN1CCN(CCCN2c3ccccc3Sc3ccc(C(F)(F)F)cc32)CC1 [Trifluoperazine dihydrochloride] | – | – | – | – | – | – | B-score functional assay [1, 9]: 0.212; Ranking score [1, 10]: 714.92; B-score binding assay [2, 11]: -0.002 |
| NCCC[C@H](N)CC(=O)N[C@H]1CNC(=O)[C@H]([C@H]2C[C@H](O)NC(N)=N2)NC(=O)/C(=C/NC(N)=O)NC(=O)[C@H](CO)NC(=O)[C@H](CO)NC1=O.O=S(=O)(O)O [Viomycin sulfate] (β3hOrn-[Dap]SS[ΔAla(Z-3-ureido)][X1]; lactam 1-C) | – | – | – | 0.436 | 846.67 | 0.234 | – |
| Cc1noc(NS(=O)(=O)c2ccc(N)cc2)c1C [Sulfisoxazole] | – | – | – | – | – | – | B-score functional assay [1, 9]: -0.089; Ranking score [1, 10]: 663.513; B-score binding assay [2, 11]: 0.207 |
| CN[C@H](CC(C)C)C(=O)N[C@H]1C(=O)N[C@@H](CC(N)=O)C(=O)N[C@H]2C(=O)N[C@H]3C(=O)N[C@H](C(=O)N[C@H](C(=O)O)c4cc(O)cc(O)c4-c4cc3ccc4O)[C@H](O)c3ccc(c(Cl)c3)Oc3cc2cc(c3O[C@@H]2O[C@H](CO)[C@@H](O)[C@H](O)[C@H]2O[C@H]2C[C@](C)(N)[C@H](O)[C@H](C)O2)Oc2ccc(cc2Cl)[C@H]1O [Vancomycin hydrochloride] | – | – | – | – | – | – | B-score functional assay [1]: -0.819; Ranking score [1]: 571.108; B-score binding assay [2]: 1.401 |
| CC(=O)O[C@]1(C(C)=O)CC[C@H]2[C@@H]3C=C(C)C4=CC(=O)CC[C@@H]4[C@H]3CC[C@@]21C [Nomegestrol acetate] | 298.149 | -2.71 | 1.174 | – | – | – | – |
| Nc1ccc(C(=O)O)c(O)c1 [4-aminosalicylic acid] | 360.074 | -0.405 | -0.683 | – | – | – | – |
| O=P1(N(CCCl)CCCl)NCCCO1 (stereo not drawn) [Cyclophosphamide] | – | – | – | – | – | – | B-score functional assay [1]: 0.493; Ranking score [1]: 990.921; B-score binding assay [2]: 1.227 |
| CC1(C)S[C@@H]2[C@H](NC(=O)Cc3ccccc3)C(=O)N2[C@H]1C(=O)O.CC1(C)S[C@@H]2[C@H](NC(=O)Cc3ccccc3)C(=O)N2[C@H]1C(=O)O.c1ccc(CNCCNCc2ccccc2)cc1 [Benzathine benzylpenicillin] | – | – | – | – | – | – | B-score functional assay [1, 9]: -0.072; Ranking score [1, 10]: 672.134; B-score binding assay [2, 11]: 0.21 |
| C[C@]12COC(=O)C[C@@H]1CC[C@@H]1[C@@H]2CC[C@@]2(C)[C@H]1CC[C@]2(C)O [Oxandrolone] | – | – | – | – | – | – | B-score functional assay [1]: -0.501; Ranking score [1]: 649.785; B-score binding assay [2]: 1.484 |
| CC(C)c1c(CN(C)C(C)Cc2ccccc2)n(C)n(-c2ccccc2)c1=O (stereo not drawn) [Famprofazone] | 376.915 | -0.708 | -0.284 | – | – | – | – |
| CC1(C)NC(=O)N(c2ccc([N+](=O)[O-])c(C(F)(F)F)c2)C1=O [Nilutamide] | – | – | – | 5.352 | 1119.7 | 0.756 | – |
| C[C@@]1(O)CCOC(=O)C1 [Mevalonic-D, L acid lactone] | – | – | – | 0.673 | 868.822 | 0.161 | – |
| CN(C)CC/C=C1/c2ccccc2COc2ccc(CC(=O)O)cc21 [Olopatadine hydrochloride] | – | – | – | 1.227 | 1048.28 | 0.808 | – |
